Source: patent US9205064B2, “Methods for the diagnosis of oncological disorders using epimetabolic shifters, multidimensional intracellular molecules, or environmental influencers” (Berg LLC, priority 2009, dated 2015)

Experiments:
variety of cell types = assay: Western blot analysis (Bcl-xL, Vimentin, oxidative phosphorylation complexes, mitochondrial membrane integrity proteins); format: cell-based; details: 50 or 100 μM Q10
Description: Approximately 50 μg of protein were assayed per sample by immunoblotting. All treatments were run in triplicate with controls. […] The primary antibodies were incubated overnight at 4 degrees C. in a 5% BSA and TBST solution. Secondary antibodies were incubated for one hour at 4 degrees. All antibodies were purchased from Cell Signaling Technology. Antibodies were used at a ratio of 1:1000, with the exception of βActin at a ratio of 1:5000. Blots were developed and results were quantified using the NIH Java based densitometer analysis software Image J. All blots were also probed for and normalized to their respective βActin expression.
The first experiment processed and evaluated by Western blot and 2-D gel electrophoresis was carried out on the skin cancer cell line SKMEL-28.
A variety of cell types were evaluated by Western blot analysis against an antibody for Bcl-xL (FIG. 14), an antibody for Vimentin (FIG. 15), a series of antibodies for mitochondrial oxidative phosphorylation function (FIGS. 16-21) and against a series of antibodies related to mitochondrial membrane integrity (FIGS. 22-27).

[1] = tested on: Pyruvate Dehydrogenase beta (PDH-E1); assay: Western blot of pyruvate dehydrogenase beta levels; format: cell-based, human
Description: The samples were processed and run on a 4-12% Bis-Tris Novex NuPAGE gel as described above. The gels were run, transferred and stained essentially as described above.
The pyruvate kinase blots were stripped by incubating for 30 minutes with methanol, followed by two 10 minute washes with TBS-T, then 30 minutes of incubation with Stripping buffer at 50 deg C., and followed by two washes with 100 ml or more of TBS-T for 30′ each. The 2 blots were scanned in laser scanner to check for complete stripping. After making sure stripping of the antibody and the ECF reagent has worked, the blots were activated with methanol for 5 seconds, washed with water for 5 minutes, and TBST for 15 minutes. The blots are blocked for 1 hour with 5% blocking reagent in TBS-T at room temperature and then washed 3 times with TBS-T (1×-15′; 2×5′ each) and probed with the antibody for Pyruvate Dehydrogenase in 5% BSA (ABNOVA catalog #H00005162-M03) at 1:500 dilutions) overnight at 4 deg C. with shaking. […]
The levels of LDH and PDH were determined by probing the blots successively with primary antibodies for LDH and PDH, essentially as described above. […]

SCC cells = assay: Real-time PCR Heat Shock Protein Array; format: cell-based
Excerpt: The control cells were untreated cells.
RNA was quantified by measuring Optical Density at 260 nm.
Heat Shock Arrays were run for SCC cells and the data of regulated genes is summarized below in Table 13.

[2] = tested on: Pancreatic Cancer Cells (PaCa2); assay: Real-time PCR Angiogenesis Array; format: cell-based; details: 100 uM Q10, various times
Description: Experiments were carried out essentially as described above.

COC1=C(OC)C(=O)C(C/C=C(\C)CC/C=C(\C)CC/C=C(\C)CC/C=C(\C)CC/C=C(\C)CC/C=C(\C)CC/C=C(\C)CC/C=C(\C)CC/C=C(\C)CCC=C(C)C)=C(C)C1=O [Q10, Coenzyme Q10]
levels of examined proteins (Bcl-xL, Vimentin, oxidative phosphorylation and mitochondrial membrane integrity proteins) (variety of cell types): upregulated or downregulated | expression of PDH-E1 ([1]; cancer cells): progressive increase | expression of PDH-E1 ([1]; normal cells): minimal changes | DNAJB5 mRNA Regulation (SCC cells; 100 μM Q10, 6 hours): Down regulated | DNAJB13 mRNA Regulation (SCC cells; 100 μM Q10, 6 hours): Down regulated | DNAJC4 mRNA Regulation (SCC cells; 100 μM Q10, 6 hours): Down regulated | DNAJC5B mRNA Regulation (SCC cells; 100 μM Q10, 6 hours): Down regulated | DNAJC12 mRNA Regulation (SCC cells; 100 μM Q10, 6 hours): Down regulated | CCT6B mRNA Regulation (SCC cells; 100 μM Q10, 24 hours): Down regulated | mRNA of AKT1, ANGPTL4, ANGPEP, CCL2, CDH4, CXCL1, EDG1, EFNA3, EFNB2, EGF, FGF1, ID3, IL1B, 1L8, KDR, NRP1, PECAM1, PROK2, SERPINF1, SPHK1, STAB1, TGFB1, VEGFA and VEGFB [2]: modulated
